Measured values from patent US7462598B2, “Antimicrobial theta defensins, analogs thereof, and methods of use” (priority 2002, dated 2008).
Marks after values point to notes of the source that are not given here. Bridge positions count the residues as written; N and C are the ends. Peptide text beside a SMILES is read from it.

Legend:
E. coli ML35 [1] = assay: Membrane permeabilization assay (ONPG hydrolysis); type: cell-based, Escherichia coli; conditions: rates at 1 μg/ml concentration of each peptide
Description: For the membrane permeabilization assay, the permeabilization of bacterial cytoplasmic membranes was determined by measuring hydrolysis of o-nitrophenyl-β-D-galactcpyranoside (ONPG) in E. coli ML35 (Sitaram et al., FEBS Lett. 303:265-268 (1992); Lehrer et al.,. J. Immunol. Methods 108:153-158 (1988)). Peptides dissolved in 5 μl of 0.01% acetic acid were two-fold serially diluted with 10 mM PIPES, pH 7.4, containing 3 mM ONPG, to final peptide concentrations of 0-8.0 μg/ml. Log-phase bacteria, prepared in PIPES buffer as described for the microbicidal assay (see Example I), were added to 1×10^6 CFU/ml final density in a final volume of 90 μl. ONPG hydrolysis was measured at 405 nm for 60 min using a SpectraMAX 190 plate reader and SOFTmaxPRO 3.1 (Molecular Devices Corp., CA). […]

E. coli ML35 [2] = assay: Cell-suspension microbicidal assay (MMC); type: cell-based, Escherichia coli; conditions: for MMC, E. coli: lowest concentration that reduced cell viability by 99.9%, 10 mM PIPES, 5 mM glucose, pH 7.4, 2 h 37° C.
Description: (§1) To test microbicidal activities, the activities of each peptide against S. aureus 502a, E. coli ML35, and C. albicans 16820 were assessed essentially as described in Example I with modifications to allow for simultaneous analysis of all twenty peptides. Briefly, two-fold serial dilutions of each peptide (in 0.01% acetic acid 0.062-8.0 μg/ml final concentrations) were mixed with 10 mM PIPES, pH 7.4, containing 5 mM glucose in sterile polystyrene 96-well plates (Corning, N.Y.). Aliquots of log-phase bacteria or yeast were added to a 2×10^6 CFU/ml final density as determined by A620. After 2 h incubation at 37° C., 15 μl of the incubation mixture was removed and serially diluted ten-fold from 1:10 to 1:10^6 in trypticase soy broth (bacteria) or Sabaraud dextrose broth (C. albicans). The diluted cell suspensions were grown 24-48 h at 37° C. until cell pellets were visible. Microbicidal activity was determined as absence of growth and was correlated to CFU/ml in control experiments where activity was determined in parallel by colony counting (see Example I). Absence of growth at the 1:10^3 dilution is equivalent to a 3-log reduction in microbial viability.
(§2) The microbicidal activities of each peptide against E. coli ML35, S. aureus 502a, and C. albicans 16820 were determined with cell-suspension microbicidal assays in 96-well plates (see Example II). Briefly, log-phase cells (2×10^6 CFU/ml final) were incubated with increasing concentrations of peptides (0-8 μg/ml final) in 50 μl of 10 mM PIPES, 5 mM glucose, pH 7.4, for 2 h at 37° C. Incubation mixtures were diluted 1:10 to 1:10^6 with trypticase-soy broth (bacteria) or Sabaraud dextrose broth (fungi) and incubated at 37° C. for 24-48 h until cell pellets were visible. Microbicidal activities (confirmed in control experiments as described in Example II) were determined as the absence of a cell pellet in the various dilutions. Peptide concentrations that caused ≧99.9% killing (absence of a cell pellet at 1:10^3 dilution) were taken as the minimum microbicidal concentrations (MMC).

S. aureus 502a [3] = assay: Cell-suspension microbicidal assay (MMC); type: cell-based, Staphylococcus aureus; conditions: for MMC, S. aureus: lowest concentration that reduced cell viability by 99.9%, 10 mM PIPES, 5 mM glucose, pH 7.4, 2 h 37° C.
Description: as §1, §2

[4] = test system: S. aureus 502a, E. coli ML35, and C. albicans 16820; assay: Cell-suspension microbicidal assay, statements across the test organisms (lowest MMC, overall ranges); type: cell-based; conditions: for 99.9% kill against one of the bacterial organisms: at 8 μg/ml, the highest concentration tested; for M: peptide concentration that kill 99.9% of either S. aureus, E. coli, or C. albicans, lowest MMC value; for fold higher MMC than the native cyclic peptide: de-cyclized analog versus native θ-defensin, three test organisms
Description: as §1, §2
(§3) A selectivity index (SI=H/M) was calculated as a ratio of a peptide concentration (μg/ml) that causes 3% hemolysis (H) obtained from a dose-dependent hemolysis plot over 0.3 to 3 μg/ml of each peptide in PBS and the lowest MMC value (M) for any of the three test microorganisms (see Example II; Table 2).

S. aureus 502a [5] = type: cell-based, Staphylococcus aureus; conditions: for enhancement of staphylocidal activity by serum: 10% normal human serum, FIG. 7
Description: Dose-dependent staphylocidal activity of each peptide was determined in assays containing 10% normal human serum. Percentages of killing are relative to activities of peptide-containing incubations in which serum was omitted.
(§4) To determine the effects of serum, salt, calcium chloride and magnesium chloride on microbicidal activities, peptide activities were determined in assays containing varying ionic strength, divalent cations, and serum. The effect of serum on staphylocidal activity of each peptide was determined by incubating 1×10^6 CFU/ml of S. aureus 502a with increasing peptide concentrations (0.5-4 μg/ml) in 10 mM PIPES, pH 7.4, containing 10% normal human serum for 2 h at 37° C. The effect of sodium chloride on staphylocidal activities was assessed with 5 μg/ml of each peptide in 10 mM PIPES, pH 7.4, containing varying concentrations of sodium chloride (0-160 mM). Effects of divalent cations, CaCl2, or MgCl2 (0-5.6 mM) were assessed in microbicidal assays against E. coli ML35. Bactericidal activities were determined by colony counting (see Example II), and microbicidal potencies were expressed as percent killing as follows:
(§5) [formula] where A=surviving bacteria (CFU/ml) after initial incubation with each peptide in buffer containing serum, salt, or divalent cations and Ao=bacterial CFU/ml in the “no-peptide” controls.

C. albicans 16820 = assay: Cell-suspension microbicidal assay (MMC); type: cell-based, Candida albicans; conditions: for MMC, C. albicans: lowest concentration that reduced cell viability by 99.9%, 10 mM PIPES, 5 mM glucose, pH 7.4, 2 h 37° C.
Description: as §1, §2

S. aureus 502a [6] = type: cell-based, Staphylococcus aureus; conditions: physiologic salt / various concentrations of salt; FIG. 6
Description: The activity of each peptide (5 μg/ml) was determined in assays containing increasing concentrations of sodium chloride. Staphylocidal activities were expressed as percentages of killing obtained in the absence of additional NaCl.
as §4, §5

human erythrocytes = assay: Hemolysis assay; type: cell-based
Description: For the hemolysis assay, the hemolytic activity of each peptide was determined by the method of Tam et al. (Tam et al., Eur. J. Biochem. 267:3289-3300 (2000)). Blood was obtained from a healthy donor in accordance to a protocol approved by the Institutional Review Board. Normal human serum was prepared from the same individual and stored at −20° C. Red blood cells (RBC) were prepared from blood collected in EDTA. RBC were harvested at 234×g for 10 min, 22° C., washed four times with 10 mM sodium phosphate, 150 mM NaCl, pH 7.4 (PBS), containing 4 mM EDTA and resuspended in PBS without EDTA. Peptides dissolved in 10 μl 0.01% HOAc were diluted with PBS to final concentrations of 0.3-100 μg/ml. RBC were added to a 2% final density in 100 μl. Incubation mixtures were also prepared with 10% serum. After 1 h incubation at 37° C., the cell suspensions were centrifuged at 234×g for 10 min, 22° C. Fifty-μl samples of the supernatants were removed, and the absorbance at 405 nm (A) was measured. Hemolytic activity of each peptide was calculated relative to lysis by 1% NP-40 using the following formula:
as §3

Structure (SMILES) | ONPG hydrolysis (E. coli ML35 [1]) | MMC, E. coli (E. coli ML35 [2]) [µg/mL] | Killing percentage, S. aureus (MMC not reached) (S. aureus 502a [3]; at 8 μg/ml, the highest concentration tested) | fold lower staphylocidal activity than RTD-3 and PG-1 (S. aureus 502a [3]; from MMC, Table 2) | MMC, S. aureus (S. aureus 502a [3]) [µg/mL] | 99.9% kill against one of the bacterial organisms [4] | M [4] [µg/mL] | inhibition of bactericidal activity in serum (S. aureus 502a [5]; 502a) | MMC, C. albicans (C. albicans 16820) [µg/mL] | effect of salt on microbicidal activity (in words) (S. aureus 502a [6]) | fold higher MMC than the native cyclic peptide [4] | H (human erythrocytes; peptide concentration that causes 3% hemolysis, calculated from dose-dependent hemolysis plot over 0.3-3 μg/ml in PBS) [µg/mL] | enhancement of staphylocidal activity by serum (S. aureus 502a [5]) [%] | fold lower potency against E. coli than native PG-1 (E. coli ML35 [2]; from MMC, Table 2) | fold lower staphylocidal potency than native PG-1 (S. aureus 502a [3]; from MMC, Table 2) [fold] | fold less microbicidal than PG-1 ([4]; Table 5) | percent less hemolytic than native PG-1 (human erythrocytes) | fold lower candidacidal potency than native PG-1 (C. albicans 16820; from MMC, Table 2)
CC(C)C[C@@H]1NC(=O)[C@@H]2CSSC[C@H](NC(=O)[C@H](CCCNC(=N)N)NC(=O)[C@@H](NC(=O)[C@@H](NC(=O)CNC(=O)[C@@H](N)CCCNC(=N)N)C(C)C)CSSC[C@@H](C(=O)N[C@@H](CCCNC(=N)N)C(N)=O)NC1=O)C(=O)N[C@@H](CC(C)C)C(=O)N[C@H]1CSSC[C@H](NC(=O)[C@H](C(C)C)NC(=O)CNC(=O)[C@H](CCCNC(=N)N)NC(=O)[C@H](CCCNC(=N)N)NC1=O)C(=O)N[C@@H](CCCNC(=N)N)C(=O)N2 [3:1 aRTD-3-NH] (H-RGVCRCLCRRGVCRCLCR-NH2; disulfide 4-17, 6-15, 8-13; N-terminus assumed) | 9.4 (A405/sec) · 10^−5 | 1.0 | (99%)^b | at least 8 fold | > 8 | did not achieve a 99.9% kill | 0.75 | 20-50% | 0.8 |  |  |  |  |  |  |  |  | 
CC[C@H](C)[C@@H]1NC(=O)[C@@H]2CSSC[C@H](NC(=O)[C@H](CCCNC(=N)N)NC(=O)[C@@H](NC(=O)[C@H](Cc3ccccc3)NC(=O)CN)CSSC[C@@H](C(=O)N[C@H](C(=O)N[C@@H](CCCNC(=N)N)C(=O)O)[C@@H](C)O)NC1=O)C(=O)N[C@@H](CC(C)C)C(=O)N[C@H]1CSSC[C@H](NC(=O)[C@H](C(C)C)NC(=O)CNC(=O)[C@H](CCCNC(=N)N)NC(=O)[C@H](CCCNC(=N)N)NC1=O)C(=O)N[C@@H](CCCNC(=N)N)C(=O)N2 [aRTD-1-OH] (H-GFCRCLCRRGVCRCICTR-OH; disulfide 3-16, 5-14, 7-12; N-terminus assumed) | 2.4 (A405/sec) · 10^−5 |  |  |  | 4.5 | did not achieve a 99.9% kill | 4 |  | 4.0 | intermediate | 4 fold | 15.0 |  |  |  |  |  | 
CC(C)C[C@H](NC(=O)[C@H](CCCNC(=N)N)NC(=O)CNC(=O)CN)C(=O)N[C@H]1CSSC[C@@H](C(=O)N[C@H](C(=O)NCC(=O)N[C@@H](CCCNC(=N)N)C(=O)N[C@@H](CCCNC(=N)N)C(N)=O)C(C)C)NC(=O)[C@H](C(C)C)NC(=O)[C@@H]2CSSC[C@H](NC(=O)[C@H](Cc3ccc(O)cc3)NC1=O)C(=O)N[C@@H](CCCNC(=N)N)C(=O)N[C@@H](CCCNC(=N)N)C(=O)N[C@@H](CCCNC(=N)N)C(=O)N[C@@H](Cc1ccccc1)C(=O)N2 [4:4 PG-1-NH] (H-GGRLCYCRRRFCVCVGRR-NH2; disulfide 5-14, 7-12; N-terminus assumed) | 12.4 (A405/sec) · 10^−5 | 1.0 |  |  | 0.5 |  | 0.5 |  | 1.5 |  |  |  | ~40 |  |  |  |  | 
CC(C)C[C@@H]1NC(=O)[C@@H]2CSSC[C@H](NC(=O)[C@H](CCCNC(=N)N)NC(=O)[C@@H](NC(=O)[C@@H](NC(=O)CN)C(C)C)CSSC[C@@H](C(=O)N[C@@H](CCCNC(=N)N)C(=O)N[C@@H](CCCNC(=N)N)C(=O)O)NC1=O)C(=O)N[C@@H](CC(C)C)C(=O)N[C@H]1CSSC[C@H](NC(=O)[C@H](C(C)C)NC(=O)CNC(=O)[C@H](CCCNC(=N)N)NC(=O)[C@H](CCCNC(=N)N)NC1=O)C(=O)N[C@@H](CCCNC(=N)N)C(=O)N2 [aRTD-3-OH] (H-GVCRCLCRRGVCRCLCRR-OH; disulfide 3-16, 5-14, 7-12; N-terminus assumed) |  |  |  |  | 1.5 |  | 1.5 |  | 1.5 | least affected | 1-2 fold |  |  |  |  |  |  | 
CC(C)C[C@H](NC(=O)[C@H](CCCNC(=N)N)NC(=O)CNC(=O)CNC(=O)[C@@H](N)CCCNC(=N)N)C(=O)N[C@H]1CSSC[C@@H](C(=O)N[C@H](C(=O)NCC(=O)N[C@@H](CCCNC(=N)N)C(=O)O)C(C)C)NC(=O)[C@H](C(C)C)NC(=O)[C@@H]2CSSC[C@H](NC(=O)[C@H](Cc3ccc(O)cc3)NC1=O)C(=O)N[C@@H](CCCNC(=N)N)C(=O)N[C@@H](CCCNC(=N)N)C(=O)N[C@@H](CCCNC(=N)N)C(=O)N[C@@H](Cc1ccccc1)C(=O)N2 [PG-1-OH] (H-RGGRLCYCRRRFCVCVGR-OH; disulfide 6-15, 8-13; N-terminus assumed) | 10.7 (A405/sec) · 10^−5 | 1.5 |  |  | 2.0 |  | 1.5 |  | 1.5 |  |  |  | 25 | 1- to 2 fold | 5 | 2-3 fold | about 50% | 1- to 2 fold
